This is an account of results in US20100093612A1, “INTEGRIN TARGETED CYCLOPEPTIDE LIGANDS, THEIR PREPARATION AND USE” (priority 2007, published 2010).

One test deals with T1, αvβ5 integrin receptor (Homo sapiens, UniProt P06756+P18084).
T1 construct: purchased Chemicon International Inc., Temecula, Calif
Put plainly: Solid-phase receptor-binding assay, competition with [125I]-echistatin, αvβ5. The note with it: IC50±SD, average of three or more independent determinations, 0.1 nM [125I]echistatin. The procedure:
(§1) Integrin-coated 96-well plates were incubated with the ligand in the presence of serially diluted competing compounds.
(§2) Solid-Phase Receptor-Binding Assay (General Procedure). The receptor binding assays were performed as described previously (Kumar, C. C.; et al. J. Pharmacol. Exp. Ther. 1997, 283, 843). Purified αvβ3 and αvβ5 receptors (Chemicon International Inc., Temecula, Calif.) were diluted to 500 ng/mL and 1000 ng/mL, respectively, in coating buffer [20 mM Tris-HCl (pH 7.4), 150 mM NaCl, 2 mM CaCl2, 1 mM MgCl2 and 1 mM MnCl2]. An aliquot of diluted receptors (100 μL/well) was added to 96-well microtiter plates and incubated overnight at 4° C. Coating solution was removed and 200 μL of blocking solution (coating buffer plus 1% BSA) were added to the wells and incubated for additional 2 h at room temperature. After incubation, the plates were rinsed three times with 200 μL of blocking-binding solution and incubated for 3 h at room temperature with 0.05 nM and 0.1 nM [^125I]Echistatin (Amersham Pharmacia) for αvβ3 and αvβ5 receptor binding assays, respectively. After incubation, the plates were sealed and counted in the γ-counter (Packard).

Another test addresses T2, αvβ3 integrin receptor (Homo sapiens, UniProt P05106+P06756).
T2 construct: purchased Chemicon International Inc., Temecula, Calif
Put plainly: Solid-phase receptor-binding assay, competition with [125I]-echistatin, αvβ3. The note with it: IC50 in the receptor high-affinity state; IC50±SD, average of three or more independent determinations; 0.05 nM [125I]echistatin. The procedure: as §1, §2

Setting [1] is: no high-affinity-state footnote.

A word on the IC50: it is the concentration that gives 50% inhibition. A higher IC50 goes with lower potency.

Consider `N=C(N)NCCC[C@@H]1NC(=O)[C@@H]2C[C@@H](CN2C(=O)c2ccccc2)NC(=O)[C@H](CC(=O)O)NC(=O)CNC1=O` [(If), c[-Arg-Gly-Asp-AMPRO2-]], for which the IC50 was found to be 86600 ± 5700 pM on αvβ5 integrin receptor (setting [1]) and 160 ± 30 pM on αvβ3 integrin receptor.
In the same order, the values of `CCC(=O)N1C[C@@H]2C[C@H]1C(=O)N[C@@H](CCCNC(=N)N)C(=O)NCC(=O)N[C@@H](CC(=O)O)C(=O)N2` [(Ih), c[Arg-Gly-Asp-AMPRO4-]] are 94000 ± 13000 pM and 30 ± 10 pM.
The matching figures for `N=C(N)NCCC[C@@H]1NC(=O)[C@@H]2C[C@H](CN2C(=O)c2ccccc2)NC(=O)[C@H](CC(=O)O)NC(=O)CNC1=O` [(Ii), c[-Arg-Gly-Asp-AMPRO5-]]: 89200 ± 5400 pM and 910 ± 400 pM.
Take `CCCCCCCN1C[C@@H]2C[C@H]1C(=O)N[C@@H](CCCNC(=N)N)C(=O)NCC(=O)N[C@@H](CC(=O)O)C(=O)N2` [(Ip), c[-Arg-Gly-Asp-AMPRO15-]]: the figures for the IC50 on αvβ5 integrin receptor (IC50 in the receptor high-affinity state) and at αvβ3 integrin receptor were 880 ± 230 pM and 80 ± 20 pM, respectively.
